In publication PMC2956513, “Novel tricyclic pyrazole BRAF inhibitors with imidazole or furan central scaffolds” (Bioorganic & Medicinal Chemistry, 2010):

What was measured:
[1] = tested on: V600EBRAF-dependent ERK phosphorylation in WM266.4 melanoma cells; assay: Phospho-ERK IC50 assay in WM266.4 cells; format: cell-based, human; details: for IC50: Homo sapiens, WM 266-4, 6 h incubation, read-out: IC50 ppERK
Protocol: (§1) The biological activities of compounds 1a–p were assessed in three assays: • (1) Inhibition of the isolated ^V600EBRAF kinase activity (IC50 BRAF), measuring MEK1/2 phosphorylation as the endpoint.[15] […] We measured the IC50 BRAF values in this paper, since they represent the inhibition of BRAF function which we consider more meaningful than the binding of inhibitor to BRAF. • (2) Inhibition of ^V600EBRAF-dependent ERK phosphorylation in WM266.4 melanoma cells (IC50 pERK). • (3) Growth inhibition of WM266.4 melanoma cells measured by sulforhodamine-B (GI50 SRB).
To determine the effect of compounds on BRAF activity in cells, WM266.4 cells were seeded at a density of 3 × 10^4 cells per well of a 96 well plate. The following day, test compounds were diluted into growth medium to 2× the desired final concentration and then added directly to the cells. After a 6 h incubation, the medium was removed and cells were fixed and permeabilized in 4% formaldehyde, 0.1% triton X-100 in PBS for 30 min. The wells were then blocked with 5% milk in PBS for 30 min at room temperature, followed by the addition of an antibody for phospho-ERK1/2 (Sigma, Dorset, UK) at […] in blocking solution. Plates were incubated for 3 h with shaking. Plates were washed three times with 0.1% Tween 20 using an ELx50 plate washer (BioTek, Winooski, USA). […] of a Europium-labelled anti-mouse secondary antibody (Perkin Elmer, Turku, Finland) was added to the wells in DELFIA assay buffer for 1 h. Plates were washed again and Enhancement solution was added to the wells and time resolved fluorescence was measured as instructed by the manufacturer after 20 min using a Spectramax M5 plate reader (Molecular Devices, Berkshire, UK). The plates were washed again and BCA protein assay reagent (Sigma, Dorset, UK) was added to the wells and incubated for 30 min at 37 °C. Absorbance at 570 nm was measured using a plate reader and used to normalize the fluorescence data. Inhibition of ERK phosphorylation was determined as a percentage of DMSO-treated cells and IC50 values were calculated using Prism (GraphPad Software, San Diego, USA).

[2] = tested on: WM266.4 melanoma cells; assay: Growth inhibition of WM266.4 cells by sulforhodamine-B (SRB); format: cell-based, human; details: for GI50 / GI50 SRB activity in words: WM266.4 cells; for GI50: sulforhodamine-B
Protocol: as §1
(§2) These assays have been described by Niculescu-Duvaz et al.[15]

[3] = biological target: V600EBRAF (Homo sapiens, UniProt P15056, V600E); assay: V600EBRAF kinase assay (MEK1/2 phosphorylation as endpoint); format: biochemical; details: for IC50: isolated full length V600EBRAF kinase activity; for BRAF activity in words: BRAF IC50 assay
Protocol: as §1, §2

[4] = biological target: BRAF (Homo sapiens, UniProt P15056); assay: BRAF fluorescent ligand binding assay; details: alternative BRAF fluorescent ligand binding assay
[5] = PK assessment in mice after intraperitoneal administration; format: in vivo, mouse; details: CD1 nu/nu female mice, intraperitoneal 4 mg/kg, cassette dosing
Protocol: The apparent clearance, half-life (t1/2) and maximal plasma concentration of a representative tricyclic pyrazole, compound 1h, were determined in vivo in CD1 nu/nu female mice following an intraperitoneal administration of 1h.
Female Crl:CD1-Foxn1nu mice at least six weeks of age bearing mutant BRAF WM266.4 human tumor xenografts were used for the PK analyses. The mice were dosed intraperitoneally (4 mg/kg, equivalent to ca. 8 μmol/kg, 10 ml/kg, in 10% ethanol:40% PEG:50% Gelofusine v/v) in a cassette with 4 other compounds. Samples were taken at 8 time-points between 15 min and 24 h. Three mice were utilized per time-point. They were placed under isoflurane anaesthesia and blood for plasma preparation was taken by terminal cardiac puncture into heparinized syringes. Plasma samples were snap frozen in liquid nitrogen and then stored at −70 °C prior to analysis. All procedures involving animals were performed in accordance with national Home Office regulations under the Animals (Scientific Procedures) Act 1986 and within guidelines set out by the Institute’s Animal Ethics Committee and the United Kingdom Coordinating Committee for Cancer Research’s ad hoc Committee on the Welfare of Animals in Experimental Neoplasia.

Chain of V600EBRAF (P15056 whole entry V600E): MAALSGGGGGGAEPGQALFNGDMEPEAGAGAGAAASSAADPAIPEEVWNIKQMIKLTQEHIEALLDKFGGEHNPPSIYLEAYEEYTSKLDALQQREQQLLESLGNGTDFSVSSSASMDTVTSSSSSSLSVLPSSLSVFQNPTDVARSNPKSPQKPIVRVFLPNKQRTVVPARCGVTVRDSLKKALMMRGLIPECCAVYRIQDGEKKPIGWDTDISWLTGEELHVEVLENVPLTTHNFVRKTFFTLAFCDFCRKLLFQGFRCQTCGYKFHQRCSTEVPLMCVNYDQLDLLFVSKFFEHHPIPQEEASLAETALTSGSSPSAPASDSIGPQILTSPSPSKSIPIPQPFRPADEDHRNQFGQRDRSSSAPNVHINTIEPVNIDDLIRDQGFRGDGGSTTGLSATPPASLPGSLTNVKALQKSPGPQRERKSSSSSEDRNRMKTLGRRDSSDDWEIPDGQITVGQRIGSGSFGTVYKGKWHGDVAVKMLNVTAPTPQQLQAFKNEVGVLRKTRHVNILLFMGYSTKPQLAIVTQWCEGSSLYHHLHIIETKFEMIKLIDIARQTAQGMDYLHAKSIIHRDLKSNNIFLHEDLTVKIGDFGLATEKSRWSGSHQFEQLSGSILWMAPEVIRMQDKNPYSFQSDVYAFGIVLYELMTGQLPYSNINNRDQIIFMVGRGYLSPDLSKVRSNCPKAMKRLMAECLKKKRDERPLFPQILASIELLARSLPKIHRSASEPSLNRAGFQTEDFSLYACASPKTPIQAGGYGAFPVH
Chain of BRAF (P15056 whole entry): as the sequence (P15056 whole entry V600E) above, with E600V counted along it

| Structure (SMILES) | IC50 [1] [nM] | GI50 ([2]; Homo sapiens, WM 266-4) [nM] | IC50 [3] [nM] | further results |
| --- | --- | --- | --- | --- |
| CN(C)CCOc1ccc(-c2nc(-c3ccc(-c4cc[nH]n4)cc3)c(-c3ccncc3)[nH]2)cc1 [1a, Dimethyl-[2-(4-{5-[4-(1H-pyrazol-3-yl)-phenyl]-4-pyridin-4-yl-1H-imidazol-2-yl}-phenoxy)-ethyl]-amine] | 5800 | 7400 | 1600 | – |
| Cc1c[nH]nc1-c1ccc(-c2nc(-c3ccc(OCCN(C)C)cc3)[nH]c2-c2ccncc2)cc1 [1b, Dimethyl-[2-(4-{5-[4-(4-methyl-1H-pyrazol-3-yl)-phenyl]-4-pyridin-4-yl-1H-imidazol-2-yl}-phenoxy)-ethyl]-amine] | 2020 | 3900 | 1200 | – |
| CN(C)CCOc1ccc(-c2nc(-c3ccc(-c4n[nH]cc4C#N)cc3)c(-c3ccncc3)[nH]2)cc1 [1c, 3-(4-{2-[4-(2-Dimethylamino-ethoxy)-phenyl]-5-pyridin-4-yl-3H-imidazol-4-yl}-phenyl)-1H-pyrazole-4-carbonitrile] | > 100000 | 11000 | > 10000 | – |
| CN(C)CCOc1ccc(-c2nc(-c3ccc(-c4n[nH]cc4Cl)cc3)c(-c3ccncc3)[nH]2)cc1 [1d, [2-(4-{5-[4-(4-Chloro-1H-pyrazol-3-yl)-phenyl]-4-pyridin-4-yl-1H-imidazol-2-yl}-phenoxy)-ethyl]-dimethyl-amine] | 10000 | 4100 | 3700 | – |
| CN(C)CCOc1ccc(-c2nc(-c3ccc4c(c3)CCc3cn[nH]c3-4)c(-c3ccncc3)[nH]2)cc1 [1e, (2-{4-[5-(4,5-Dihydro-2H-benzo[g]indazol-7-yl)-4-pyridin-4-yl-1H-imidazol-2-yl]-phenoxy}-ethyl)-dimethyl-amine] | 5800 | – | 1840 | – |
| CN(C)CCOc1ccc(-c2nc(-c3ccc4c(ccc5cn[nH]c54)c3)c(-c3ccncc3)[nH]2)cc1 [1f, (2-{4-[4-(1H-Benzo[g]indazol-7-yl)-5-pyridin-4-yl-1H-imidazol-2-yl]-phenoxy}-ethyl)-dimethyl-amine] | 25000 | 3300 | 1710 | – |
| CN(C)CCOc1ccc(-c2nc(-c3ccc4c(c3)CC3CC(=O)NN=C43)c(-c3ccncc3)[nH]2)cc1 (centres unmarked) [1g, 7-{2-[4-(2-Dimethylamino-ethoxy)-phenyl]-5-pyridin-4-yl-1H-imidazol-4-yl}-2,4,4a,5-tetrahydro-indeno[1,2-c]pyridazin-3-one] | 100000 | 8900 | > 10000 | – |
| CN(C)CCOc1ccc(-c2nc(-c3ccc4c(c3)Cc3cn[nH]c3-4)c(-c3ccncc3)[nH]2)cc1 [1h, (2-{4-[5-(2,4-Dihydro-indeno[1,2-c]pyrazol-6-yl)-4-pyridin-4-yl-1H-imidazol-2-yl]-phenoxy}-ethyl)-dimethyl-amine] | 1090 | 1150 | 230 | Kd [4]: 6.1 nM; IC50 ([2]; Homo sapiens, WM 266-4, SRB cellular IC50, value in PK text): 1100 nM; half-life ([5]; CD1 nu/nu (Crl:CD1-Foxn1nu), mouse, ip, plasma, read-out: half-life (T1/2) (converted)): 3.9 h; Cmax ([5]; CD1 nu/nu (Crl:CD1-Foxn1nu), mouse, ip, plasma, read-out: maximal plasma concentration (Cmax)): 5.8 µM; plasma clearance (CL) ([5]; apparent clearance): 11 mL/min/kg |
| CN(C)CCOc1ccc(-c2nc(-c3ccc4c(c3)Cc3nn[nH]c3-4)c(-c3ccncc3)[nH]2)cc1 [1i, (2-{4-[5-(3,8-Dihydro-indeno[1,2-d] [1,2,3]triazol-6-yl)-4-pyridin-4-yl-1H-imidazol-2-yl]-phenoxy}-ethyl)-dimethyl-amine] | 4400 | – | > 10000 | BRAF activity in words [3]: inactive |
| CN1CCN(c2ccc(-c3nc(-c4ccc5c(c4)Cc4cn[nH]c4-5)c(-c4ccncc4)[nH]3)cc2)CC1 [1j, 6-{2-[4-(4-Methyl-piperazin-1-yl)-phenyl]-5-pyridin-4-yl-3H-imidazol-4-yl}-2,4-dihydro-indeno[1,2-c]pyrazole] | 580 | 870 | 240 | IC50 ppERK activity in words [1]: submicromolar activity; GI50 SRB activity in words [2]: submicromolar activity; BRAF activity in words [3]: submicromolar activity |
| c1cc(-c2[nH]c(C3CCNCC3)nc2-c2ccc3c(c2)Cc2cn[nH]c2-3)ccn1 [1k, 6-(2-Piperidin-4-yl-5-pyridin-4-yl-3H-imidazol-4-yl)-2,4-dihydro-indeno[1,2-c]pyrazole] | 4900 | 36000 | 1330 | – |
| CN(C)CCN1CCN(C(=O)c2cc(-c3ccc4c(c3)Cc3cn[nH]c3-4)c(-c3ccncc3)o2)CC1 [1l, [4-(2,4-Dihydro-indeno[1,2-c]pyrazol-6-yl)-5-pyridin-4-yl-furan-2-yl]-[4-(2-dimethylamino-ethyl)-piperazin-1-yl]-methanone] | 740 | 1610 | 3600 | – |
| O=C(c1cc(-c2ccc3c(c2)Cc2cn[nH]c2-3)c(-c2ccncc2)o1)N1CCOCC1 [1m, [4-(2,4-Dihydro-indeno[1,2-c]pyrazol-6-yl)-5-pyridin-4-yl-furan-2-yl]-morpholin-4-yl-methanone] | 840 | 940 | 2150 | IC50 ppERK activity in words [1]: submicromolar activity; GI50 SRB activity in words [2]: submicromolar activity |
| O=C(c1cc(-c2ccc3c(c2)Cc2cn[nH]c2-3)c(-c2ccncc2)o1)N1CCNCC1 [1n, [4-(2,4-Dihydro-indeno[1,2-c]pyrazol-6-yl)-5-pyridin-4-yl-furan-2-yl]-piperazin-1-yl-methanone] | 970 | 1590 | 2780 | – |
| CN1CCN(C(=O)c2cc(-c3ccc4c(c3)Cc3cn[nH]c3-4)c(-c3ccncc3)o2)CC1 [1o, [4-(2,4-Dihydro-indeno[1,2-c]pyrazol-6-yl)-5-pyridin-4-yl-furan-2-yl]-(4-methyl-piperazin-1-yl)-methanone] | 730 | 1910 | 7500 | – |
| CN(C)CCN1CCN(C(=O)c2cc(-c3ccc4c(c3)Cc3cnn(C)c3-4)c(-c3ccncc3)o2)CC1 [1p, [4-(2-Dimethylamino-ethyl)-piperazin-1-yl]-[4-(1-methyl-1,4-dihydro-indeno [1,2-c]pyrazol-6-yl)-5-pyridin-4-yl-furan-2-yl]-methanone] | > 10000 | – | > 10000 | – |
